# The source made the active and inactive calls.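 Rule for the calls: active = EC50 no more than a set limit of log units above the highest dose; inactive = the rest.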
# Target: S. pyogenes SKKanGAS, kanamycin survival, BacTiterGlo, 6 h
# Assay: S. pyogenes SKKanGAS kanamycin growth inhibitors – SKKanGAS strain, luminescence, dose confirmation, streptokinase promoter inhibitor project, dose response (AID 1902);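 note: lower survival reflects blocked streptokinase promoter driving kanamycin resistance gene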
row,Compound,EC50
1,O=[N+]([O-])c1ccc(/C=[N+](\[O-])CCO)o1,5780 nM
2,O=C(CNC(=O)c1ccc(F)cc1)N/N=C/c1cc(Br)ccc1OCc1ccccc1,12200 nM
3,O=C(NC(NC(=S)Nc1cccc(Cl)c1)C(Cl)(Cl)Cl)OCc1ccccc1 (stereo not given),1780 nM
4,Cc1cc(C(=O)N/N=C/c2cc(Cl)cc([N+](=O)[O-])c2O)c2ccccc2n1,2610 nM
5,CCc1nnc(NC(=O)c2ccc(S(=O)(=O)N3CCCc4ccccc43)cc2)o1,1680 nM
6,CCc1ccc(OCC(=O)NNC(=S)NC(=O)C2CCCCC2)c(Br)c1,< 60 nM
7,O=C(O)c1ccc(N/N=C/c2ccc(-c3ccc(Cl)cc3Cl)o2)cc1,1940 nM
8,O=C(CSc1ccccn1)N/N=C/c1cc([N+](=O)[O-])ccc1O,1040 nM
9,Cc1ccc2[nH]c(C(=O)N/N=C/c3ccccc3O)c(C)c2c1,1670 nM
10,CC(=O)Oc1c(-c2ccc(Br)o2)oc2ccccc2c1=O,3340 nM
11,CC1Oc2cc3oc4c(O)c(O)ccc4c(=O)c3c(O)c2C1(C)C (stereo not given),5890 nM
12,CCN(c1ccccc1)S(=O)(=O)c1ccc(C(=O)Nc2nnc(-c3ccco3)o2)cc1,2040 nM
13,CN(CC1CCCO1)S(=O)(=O)c1ccc(C(=O)Nc2ccc(F)cc2)cc1 (stereo not given),> 15000 nM (inactive)
14,C/C(=N\NC(=O)COc1ccc(C)cc1C(C)C)c1cc2ccccc2o1,11000 nM
15,O=C(Nc1nnc(-c2ccco2)o1)c1ccc(Cl)cc1,1200 nM
16,CC(=O)OCCCNc1cc(Sc2nc3ccccc3s2)c2nonc2c1[N+](=O)[O-],2430 nM
17,COc1cccc(C(=O)Nc2nnc(-c3ccc(F)cc3)o2)c1,1280 nM
18,COc1ccc(N2CC(C(=O)Nc3nnc(SCc4cccnc4)s3)CC2=O)cc1 (stereo not given),> 15000 nM (inactive)
19,Cc1ccc(Cn2ccc(=O)c(OCc3c(Cl)cccc3Cl)c2C)cc1,5940 nM
20,Cc1onc(-c2ccccc2)c1C(=O)NNC(=S)NC(=O)/C=C/c1cccs1,839 nM
21,COc1ccc(-c2ncn(CCC#N)c2[N+](=O)[O-])cc1,2720 nM
22,Cc1nn2c(NCc3ccccn3)cc(C(C)(C)C)nc2c1-c1ccccc1,1540 nM
23,O=C(CN1c2ccccc2Sc2ccccc21)NNC(=S)Nc1ccc(Cl)cc1,2660 nM
24,Cc1onc(-c2ccccc2)c1C(=O)NNC(=S)NC(=O)c1ccc(Cl)cc1Cl,615 nM
25,COc1ccc(C(=O)NC(=S)NNC(=O)c2c(-c3ccccc3)noc2C)cc1OC,506 nM

row,Compound,EC50
1,CC(NC(=O)Nc1nnc(C(F)(F)F)s1)(C(F)(F)F)C(F)(F)F,2970 nM
2,Cc1onc(-c2ccccc2)c1C(=O)NC(=S)NNC(=O)c1ccc(O)cc1O,2670 nM
3,O=C(O)c1ccc(N=Nc2c(O)[nH]c3ccc(Br)cc23)cc1,2030 nM
4,CCc1nc2c3cnn(-c4cc(Cl)ccc4C)c3ncn2n1,12800 nM
5,COc1ccc(Cn2c(C3CCCCC3)nc3c(c(=O)c4ccccc4n3C)c2=O)cc1,3200 nM
6,CC(C)=CCC/C(C)=C/Cc1c(O)ccc(C(=O)/C=C/c2ccc(O)cc2)c1O,1020 nM
7,Cc1cccc(N2CCN(C(=O)C34CC5CC(CC(C5)C3)C4)CC2)c1C,5650 nM
8,O=c1oc2ccccc2c(O)c1C(c1ccc([N+](=O)[O-])cc1)c1c(O)c2ccccc2oc1=O,6300 nM
9,O=C(CSc1nc(Nc2ccccc2)nc(N2CCOCC2)n1)Nc1cc(Cl)ccc1O,4130 nM
10,C/C(Cl)=C\Cn1c(O)c(N=NC(N)=S)c2cc(Br)ccc21,1360 nM
11,O=c1c2ccccc2[se]n1-c1ccccc1,1520 nM
12,Cc1ccc(C)c(/C=N/NC(=S)NCCc2ccccc2)c1,4050 nM
13,CCCCc1ccc(NC(=O)NCc2ccccn2)cc1,> 15000 nM (inactive)
14,CCCCc1nc(NCc2ccccc2)c(C#N)c2c1CCCC2,8220 nM
15,CS(=O)(=O)c1ccc2nc(NC(=O)c3ccc(NS(=O)(=O)c4ccc(F)c(F)c4)cc3)sc2c1,622 nM
16,Cc1cc(C)c2nc(NNC(=O)c3ccc(S(=O)(=O)N4CCc5ccccc5C4)cc3)sc2c1,538 nM
17,O=C(O)c1ccc(N/N=C/c2ccc(OC(=O)c3ccccc3Cl)cc2)cc1,5020 nM
18,O=C(CCl)c1ccc(Cc2ncc(C(F)(F)F)cc2Cl)s1,3690 nM
19,O=C1NC(=O)/C(=C\c2ccccc2OCc2ccccc2)S1,10300 nM
20,Cc1cc(C)c(S(=O)(=O)/N=C2\C=C(Nc3ccc(C(=O)O)cc3)C(=O)c3ccccc32)c(C)c1,1160 nM
21,CCC(C)Sc1cccc(-c2nc3ccc(C)cn3c2NCc2ccccc2)c1 (stereo not given),3240 nM
22,Cc1onc(-c2c(F)cccc2Cl)c1C(=O)NCc1ccc2c(c1)OCO2,> 15000 nM (inactive)
23,COc1ccc(CC(=O)NC(=S)NNC(=O)COc2c(C)cccc2C)cc1,134 nM
24,FC(F)(F)c1cc(Nc2ccccc2)nc(-c2ccccn2)n1,15200 nM
25,COc1ccc(/C=N/n2c(-c3cccs3)n[nH]c2=S)cc1,14300 nM

row,Compound,EC50
1,O=C(N/N=C/c1cc(Br)ccc1O)C(=O)Nc1ccccc1OC(F)(F)C(F)F,1440 nM
2,CC[C@H]1OC(=O)[C@H](C)[C@@H](O[C@H]2C[C@@](C)(OC)[C@@H](O)[C@H](C)O2)[C@H](C)[C@@H](O[C@@H]2O[C@H](C)C[C@H](N(C)C)[C@H]2O)[C@](C)(O)C[C@@H](C)CN(C)[C@H](C)[C@@H](O)[C@]1(C)O,< 60 nM
3,FC(F)(F)c1ccc(C2[C@H]3CN(Cc4cccnc4)[C@H](c4ccccc4)C34CC2(c2cccnc2)C4)cc1 (stereo not given in full),5150 nM
4,CCCCCCn1c(=O)c(C(=O)Nc2c(C)n(C)n(-c3ccccc3)c2=O)c(O)c2ccccc21,2590 nM
5,CCC(C)Sc1cc(-c2nc3ccc(C)cn3c2NCc2ccccc2)ccc1OC (stereo not given),1420 nM
6,Oc1ccccc1N=Nc1nc(-c2ccccc2)c(-c2ccccc2)[nH]1,303 nM
7,COc1ccc2nc(Nc3nc(C)c(C(C)=O)s3)sc2c1,6640 nM
8,O=C1/C(=C\c2cc([N+](=O)[O-])ccc2O)SC(=S)N1Cc1ccc(Cl)cc1,2180 nM
9,O=C(NC(=S)N1CCN(c2c(Cl)cccc2[N+](=O)[O-])CC1)c1cccs1,5150 nM
10,COc1ccc(C(=O)N2CCc3c([nH]c4ccccc34)C2C(F)(F)F)cc1 (stereo not given),> 15000 nM (inactive)
11,O=c1c2ccccc2c(C=Nc2ccc(O)cc2)c(O)n1Cc1ccccc1,6210 nM
12,COCCn1c(N)c(C(=O)Nc2sc3c(c2C(=O)OC)CCCC3)c2nc3ccccc3nc21,4570 nM
13,CC(=O)Oc1ccccc1C1=NN(C(=O)/C=C/c2ccccc2)C(c2ccccc2)C1 (stereo not given),5150 nM
14,CC(C)(C)C(=O)NC(=S)NNC(=O)c1ccc(Cl)cc1Cl,402 nM
15,C=CCNC(=S)N/N=C(\C)c1ccccn1,1760 nM
16,N#Cc1ccc(C(=O)Nc2nc(SCc3ccc(Cl)cc3)n[nH]2)cc1,1520 nM
17,NC(=S)N/N=C\c1c(OCc2ccccc2Cl)ccc2ccccc12,2530 nM
18,Nc1nc(NCc2ccco2)nc(N2CCCCCC2)c1[N+](=O)[O-],4090 nM
19,Cc1cc(C)c2c(C(C)(C)C)nn(-c3ccccc3)c2n1,2970 nM
20,COc1ccc(CCNC(=O)c2cc(-c3ccc(Cl)c(Cl)c3)oc2C)cc1,12200 nM
21,COc1cc(-c2c(C#N)c(N)nc3c2c(C)nn3-c2ccc(C)c(C)c2)cc(OC)c1OC,4530 nM
22,CC/C(=C\C=C\[C@@H]1C=C[C@@H]2CCC[C@H]2[C@@H]1C(=O)c1ccc[nH]1)[C@@H]1O[C@@H]([C@@H](C)C(=O)O)CC[C@@H]1C,127 nM
23,COc1ccc(/C=N/Nc2cc(C)nc(-n3nc(C)cc3C)n2)c(OC)c1,7930 nM
24,CCCCCCCCCCOC(=O)Cn1c(COc2cccc(C)c2)[n+](C)c2ccccc21,2830 nM
25,O=c1cc(C(F)(F)F)[nH]c2c(C(F)(F)F)cccc12,2340 nM

# — PubChem BioAssay AID1902 (Broad Institute, 2009)
